Assay results from patent US20240261422A1, “ANTHRACYCLINE ANTIBODY CONJUGATES” (SEAGEN INC., priority 2021, published 2024).
Like-named read-outs stand apart in the source and are kept apart here.

Columns and labels:
[1] = test system: L540cy, 786-O, BxPC3, HL60, HL60/RV; conditions: for change of potency relative to the parent compound: comparison in words; for IC50s of cOKT9 conjugates: 24 h
[2] = test system: BxPC3, PancCa; experiment: In vitro growth inhibition (CellTiter-Glo, 96 h), BxPC3; format: cell-based; conditions: for IC50: anthracycline free drugs, 96 h, read-out: IC50 (nM) BxPC3, PancCa; for IC50 (ng/mL) BxPC3, PancCa: cOKT9 ADCs, average DAR 8, 96 h
Method: (§1) Cell culture of cell lines as listed in Table 2-4 in log-phase growth were seeded in 96-well plates and grown for 24 h in cell culture media containing 150 μL RPMI 1640 supplemented with 20% FBS (see Mol. Cancer Ther., 2016, 15(5), 938-945 and Mol. Cancer Ther., 2018, 17(8), 1752-1760). Serial dilutions of free drugs or antibody-drug conjugates (final concentration between 0.004 nM and 1 μM) in cell culture media were prepared at 4× working concentrations; 50 μL of each dilution was added to the 96-well plates. Following addition of the drug or ADC, the cells were incubated with test articles (free drugs or ADCs) for 4 d at 37° C. After 96 h, growth inhibition was assessed by CellTiter-Glo® (Promega, Madison, WI) and luminescence was measured on a plate reader (brand, model).
(§2) Cells were treated for 96 hours with anthracycline analogues listed in Table 2, and then assessed for viability as described in the procedures as described above. […] ND denotes value not determined with that assay for the specified compound.
(§3) ADCs were prepared by full reduction of interchain disulfides to reveal 8-conjugatable cysteines/antibody, and subsequent alkylation with the maleimide-containing drug-linkers (Compounds 14, 18, 21, 24, 29, 32, 33, 34, and 48) according to the procedures described in Mol. Cancer Ther. 2018, 17(8). 1752-1760. Conjugates of antibody cOKT9 were prepared with anthracycline linkers. Cancer cell lines were treated with cOKT9 ADCs (average DAR of 8:1) for 96 h and then assessed for viability. […] ND denotes value not determined with that assay for the specified compound.

[3] = test system: L540cy, HL; experiment: In vitro growth inhibition (CellTiter-Glo, 96 h), L540cy; format: cell-based; conditions: for IC50: anthracycline free drugs, 96 h, read-out: IC50 (nM) L540cy, HL
Method: as §1, §2, §3
(§4) Anti-CD30 ADCs comprising cAC10 antibody conjugated to drug-linkers 24, 32, 29, 18, 14, and 48 with an average DAR of 4 were prepared for evaluation on a CD30-expressing lymphoma cell line panel. […] Anti-CD30 conjugates bearing the PNU linkers 24, 32, 29, 18, and 14 were active on L540cy, DEL, and Karpas299 lymphoma cell lines, and conjugate 48 was active on L540cy and DEL cell lines, with IC50s ranging from 0.2-4 ng/mL.

[4] = test system: 786-O, MDR + RCC; experiment: In vitro growth inhibition (CellTiter-Glo, 96 h), 786-O; format: cell-based; conditions: for IC50: 96 h; for IC50 (ng/mL) 786-O, MDR + RCC: cOKT9 ADCs, average DAR 8, 96 h
Method: as §1, §2, §3

[5] = test system: HL60/RV, MDR + AML; experiment: In vitro growth inhibition (CellTiter-Glo, 96 h), HL60/RV; format: cell-based; conditions: for IC50: read-out: IC50 (nM) HL60/RV, MDR + AML; for IC50 (ng/mL) HL60/RV, MDR + AML: cOKT9 ADCs, average DAR 8, 96 h
Method: as §1, §2, §3

[6] = test system: HL60, AML; experiment: In vitro growth inhibition (CellTiter-Glo, 96 h), HL60; format: cell-based; conditions: for IC50: read-out: IC50 (nM) HL60, AML; for IC50 (ng/mL) HL60, AML: cOKT9 ADCs, average DAR 8, 96 h
Method: as §1, §2, §3

[7] = test system: Karpas299, ALCL; experiment: In vitro growth inhibition (CellTiter-Glo, 96 h), Karpas299; format: cell-based; conditions: cAC10 (anti-CD30) ADCs, average DAR 4
Method: as §1, §4

[8] = test system: DEL, ALCL; experiment: In vitro growth inhibition (CellTiter-Glo, 96 h), DEL; format: cell-based; conditions: cAC10 (anti-CD30) ADCs, average DAR 4
Method: as §1, §4

[9] = test system: L428, MDR + HL; experiment: In vitro growth inhibition (CellTiter-Glo, 96 h), L428; format: cell-based; conditions: cAC10 (anti-CD30) ADCs, average DAR 4
Method: as §1, §4

[10] = test system: Ramos, CD30 − NHL; experiment: In vitro growth inhibition (CellTiter-Glo, 96 h), Ramos; format: cell-based; conditions: cAC10 (anti-CD30) ADCs, average DAR 4
Method: as §1, §4

[11] = Homo sapiens, 786-0, anthracycline free drugs, read-out: IC50 (nM) 786-O, MDR + RCC
[12] = cOKT9 ADCs, average DAR 8, 96 h
[13] = cOKT9 ADCs DAR 8, result in words
[14] = cAC10 (anti-CD30) ADCs, average DAR 4

`COc1cccc2c1C(=O)c1c(O)c3c(c(O)c1C2=O)C[C@@](O)(C(=O)O)C[C@@H]3O[C@H]1C[C@H](N2CCO[C@H](OC)C2)[C@H](O)[C@H](C)O1` [Compound 4, (2S,4S)-2,5,12-trihydroxy-4-(((2R,4S,5S,6S)-5-hydroxy-4-((S)-2-methoxymorpholino)-6-methyltetrahydro-2H-pyran-2-yl)oxy)-7-methoxy-6,11-dioxo-1,2,3,4,6,11-hexahydrotetracene-2-carboxylic acid] was tested, and the “change of potency relative to the parent compound” value ([1]; free drugs) was “lost roughly one order of magnitude in potency”, the IC50 ([2]; Homo sapiens, BXPC-3) was 10 to 100 nM and the IC50 ([3]; L540cy) was 10 to 100 nM. The IC50 [4, 11] was 10 to 100 nM.

`COc1cccc2c1C(=O)c1c(O)c3c(c(O)c1C2=O)C[C@@](O)(C(=O)CO)C[C@@H]3O[C@H]1C[C@H]2[C@H](O[C@@H]3[C@@H](OC)OCCN32)[C@H](C)O1` [Compound 5, PNU-159682, reference compound] was tested, and the IC50 ([5]; anthracycline free drugs, 96 h) was under 10 nM, the IC50 ([1]; read-out: IC50 values on the cancer lines tested, free drugs, 96 h, value or range over the cell lines tested) was about 0.01 nM and the IC50 ([6]; anthracycline free drugs, 96 h) was under 10 nM. For the same compound, the IC50 [2] was under 10 nM, the IC50 [3] was under 10 nM and the IC50 ([4]; anthracycline free drugs, read-out: IC50 (nM) 786-O, MDR + RCC) was under 10 nM. The IC50 ([4]; free drug, read-out: IC50 value, 786-0) was under 0.004 nM.

`COc1cccc2c1C(=O)c1c(O)c3c(c(O)c1C2=O)C[C@@](O)(C(=O)NCCN)C[C@@H]3O[C@H]1C[C@H]2[C@H](O[C@@H]3[C@@H](OC)OCCN32)[C@H](C)O1` [Compound 9, (2S,4S)—N-(2-aminoethyl)-2,5,12-trihydroxy-7-methoxy-4-(((1S,3R,4aS,9S,9aR,10aS)-9-methoxy-1-methyloctahydro-1H-pyrano[4′,3′:4,5]oxazolo[2,3-c][1,4]oxazin-3-yl)oxy)-6,11-dioxo-1,2,3,4,6,11-hexahydrotetracene-2-carboxamide] was tested, and the IC50 ([5]; Homo sapiens, HL-60, 96 h) was 100 to 1000 nM, the “change of potency relative to the parent compound” value ([1]; free drugs) was “increased potency in 4 of 5 cell lines” and the IC50 ([6]; Homo sapiens, HL-60, 96 h) was under 10 nM. It also gave an IC50 ([2]; Homo sapiens, BXPC-3) of under 10 nM, an IC50 ([3]; L540cy) of under 10 nM and an IC50 [4, 11] of under 10 nM.

`COc1cccc2c1C(=O)c1c(O)c3c(c(O)c1C2=O)C[C@@](O)(C(=O)NCCOCCOCCOCCOCCNC(=O)CCN1C(=O)C=CC1=O)C[C@@H]3O[C@H]1C[C@H]2[C@H](O[C@@H]3[C@@H](OC)OCCN32)[C@H](C)O1` [Compound 21, (2S,4S)—N-(18-(2,5-dioxo-2,5-dihydro-1H-pyrrol-1-yl)-16-oxo-3,6,9,12-tetraoxa-15-azaoctadecyl)-2,5,12-trihydroxy-7-methoxy-4-(((1S,3R,4aS,9S,9aR,10aS)-9-methoxy-1-methyloctahydro-1H-pyrano[4′,3′:4,5]oxazolo[2,3-c][1,4]oxazin-3-yl)oxy)-6,11-dioxo-1,2,3,4,6,11-hexahydrotetracene-2-carboxamide] was tested, and the “IC50 (ng/mL) HL60/RV, MDR + AML” value [5] was “D (IC50≥1000 ng/mL)”, the “IC50s of cOKT9 conjugates” value [1] was 1 to 150 ng/mL and the “IC50 (ng/mL) HL60, AML” value [6] was “C (100 ng/mL≤IC50<1000 ng/mL)”. For the same compound, the “IC50 (ng/mL) BxPC3, PancCa” value [2] was “A (IC50<10 ng/mL)”, the “IC50 (ng/mL) L540cy, HL” value [3, 12] was “A (IC50<10 ng/mL)” and the “IC50 (ng/mL) 786-O, MDR + RCC” value [4] was “A (IC50<10 ng/mL)”.

In the case of `COc1cccc2c1C(=O)c1c(O)c3c(c(O)c1C2=O)C[C@@](O)(C(=O)NCCNC(=O)OCc1ccc(NC(=O)[C@H](C)NC(=O)[C@@H](NC(=O)CCN2C(=O)C=CC2=O)C(C)C)cc1)C[C@@H]3O[C@H]1C[C@H]2[C@H](O[C@@H]3[C@@H](OC)OCCN32)[C@H](C)O1` [Compound 24, 4-((S)-2-((S)-2-(3-(2,5-dioxo-2,5-dihydro-1H-pyrrol-1-yl)propanamido)-3-methylbutanamido)propanamido)benzyl (2-((2S,4S)-2,5,12-trihydroxy-7-methoxy-4-(((1S,3R,4aS,9S,9aR,10aS)-9-methoxy-1-methyloctahydro-1H-pyrano[4′,3′:4,5]oxazolo[2,3-c][1,4]oxazin-3-yl)oxy)-6,11-dioxo-1,2,3,4,6,11-hexahydrotetracene-2-carboxamido)ethyl)carbamate], the “activity of cOKT9 conjugates on multidrug resistant HL60/RV” value [5, 13] is reported as “active”, the “IC50 (ng/mL) HL60/RV, MDR + AML” value [5] is reported as “B (10 ng/mL≤IC50<100 ng/mL)” and the “IC50s of cOKT9 conjugates” value [1] is reported as 1 to 150 ng/mL. The “IC50 (ng/mL) HL60, AML” value [6] was “B (10 ng/mL≤IC50<100 ng/mL)”, the “IC50 (ng/mL) BxPC3, PancCa” value [2] was “A (IC50<10 ng/mL)” and the “IC50 (ng/mL) Karpas299, ALCL” value [7] was “B (1 ng/mL≤IC50<10 ng/mL)”. For the same compound, the “IC50 (ng/mL) DEL, ALCL” value [8] was “A (IC50<1 ng/mL)”, the “IC50 (ng/mL) L540cy, HL” value [3, 14] was “B (1 ng/mL≤IC50<10 ng/mL)” and the “IC50 (ng/mL) L540cy, HL” value [3, 12] was “A (IC50<10 ng/mL)”. The “IC50 (ng/mL) 786-O, MDR + RCC” value [4] was “B (10 ng/mL≤IC50<100 ng/mL)”, the “IC50 (ng/mL) L428, MDR + HL” value [9] was “E (IC50≥500 ng/mL)” and the “IC50 (ng/mL) Ramos, CD30 − NHL” value [10] was “D (100 ng/mL≤IC50<500 ng/mL)”.

With `COc1cccc2c1C(=O)c1c(O)c3c(c(O)c1C2=O)C[C@@](O)(C(=O)NCCNC(=O)CCN1C(=O)C=CC1=O)C[C@@H]3O[C@H]1C[C@H](N2CCO[C@H](OC)C2)[C@H](O)[C@H](C)O1` [Compound 34, (2S,4S)—N-(2-(3-(2,5-dioxo-2,5-dihydro-1H-pyrrol-1-yl)propanamido)ethyl)-2,5,12-trihydroxy-4-(((2R,4S,5S,6S)-5-hydroxy-4-((S)-2-methoxymorpholino)-6-methyltetrahydro-2H-pyran-2-yl)oxy)-7-methoxy-6,11-dioxo-1,2,3,4,6,11-hexahydrotetracene-2-carboxamide] the “activity of cOKT9 conjugates across the panel of cancer cell lines” value [1, 13] was “inactive”, the “IC50 (ng/mL) BxPC3, PancCa” value [2] was “D (IC50≥1000 ng/mL)” and the “IC50 (ng/mL) L540cy, HL” value [3, 12] was “D (IC50≥1000 ng/mL)”. For the same compound, the “IC50 (ng/mL) 786-O, MDR + RCC” value [4] was “D (IC50≥1000 ng/mL)”.

`COc1cccc2c1C(=O)c1c(O)c3c(c(O)c1C2=O)C[C@@](O)(C(=O)NCCNC(=O)CNC(=O)[C@H](C)NC(=O)[C@@H](NC(=O)CCN1C(=O)C=CC1=O)C(C)C)C[C@@H]3O[C@H]1C[C@H]2[C@H](O[C@@H]3[C@@H](OC)OCCN32)[C@H](C)O1` [Compound 48, (2S,4S)—N-((8S,11S)-15-(2,5-dioxo-2,5-dihydro-1H-pyrrol-1-yl)-11-isopropyl-8-methyl-4,7,10,13-tetraoxo-3,6,9,12-tetraazapentadecyl)-2,5,12-trihydroxy-7-methoxy-4-(((1S,3R,4aS,9S,9aR,10aS)-9-methoxy-1-methyloctahydro-1H-pyrano[4′,3′:4,5]oxazolo[2,3-c][1,4]oxazin-3-yl)oxy)-6,11-dioxo-1,2,3,4,6,11-hexahydrotetracene-2-carboxamide] was tested, and the “IC50s of cOKT9 conjugates” value [1] was 1 to 150 ng/mL, the “IC50 (ng/mL) BxPC3, PancCa” value [2] was “A (IC50<10 ng/mL)” and the “IC50 (ng/mL) DEL, ALCL” value [8] was “A (IC50<1 ng/mL)”. For the same compound, the “IC50 (ng/mL) L540cy, HL” value [3, 14] was “A (IC50<1 ng/mL)”, the “IC50 (ng/mL) L540cy, HL” value [3, 12] was “A (IC50<10 ng/mL)” and the “IC50 (ng/mL) 786-O, MDR + RCC” value [4] was “B (10 ng/mL≤IC50<100 ng/mL)”.
